Source: ChEMBL document CHEMBL4359852, “Design, synthesis and biological evaluation of novel 5-(piperazin-1-yl)quinolin-2(1H)-one derivatives as potential chitin synthase inhibitors and antifungal agents” (Eur J Med Chem, 2019)
pIC50: −log10 of the molar value. ≈ marks a conversion by molar mass, not a printed value.

Columns and labels:
Proteus vulgaris = assay: Antibacterial activity against Bacillus proteus ATCC 8427 assessed as reduction in bacterial cell growth incubated for overnight by two-fold serial dilution method; type: functional
Staphylococcus aureus [1] = assay: Antibacterial activity against methicillin resistant Staphylococcus aureus N 315 assessed as reduction in bacterial cell growth incubated for overnight by two-fold serial dilution method; type: functional
Escherichia coli = assay: Antibacterial activity against Escherichia coli JM109 assessed as reduction in bacterial cell growth incubated for overnight by two-fold serial dilution method; type: functional
Bacillus subtilis = assay: Antibacterial activity against Bacillus subtilis ATCC 6633 assessed as reduction in bacterial cell growth incubated for overnight by two-fold serial dilution method; type: functional
[2] = Inhibition of Saccharomyces cerevisiae CGMCC 2.145 chitin synthase using GlcNAc and UDP-GlcNAc as substrate incubated for 60 mins by microplate reader analysis
Candida albicans = assay: Antifungal activity against Candida albicans ATCC 76615 assessed as reduction in fungal cell growth incubated for 48 hrs by two-fold serial dilution method; type: functional; conditions: ATCC 76615, 48 h
Cryptococcus neoformans = assay: Antifungal activity against Cryptococcus neoformans ATCC 32719 assessed as reduction in fungal cell growth incubated for 48 hrs by two-fold serial dilution method; type: functional; conditions: ATCC 32719, 48 h
Pseudomonas aeruginosa = assay: Antibacterial activity against Pseudomonas aeruginosa ATCC 9027 assessed as reduction in bacterial cell growth incubated for overnight by two-fold serial dilution method; type: functional
Aspergillus flavus = assay: Antifungal activity against Aspergillus flavus ATCC 16870 assessed as reduction in fungal cell growth incubated for 48 hrs by two-fold serial dilution method; type: functional; conditions: ATCC 16870, 48 h
Staphylococcus aureus [3] = assay: Antibacterial activity against Staphylococcus aureus ATCC 25923 assessed as reduction in bacterial cell growth incubated for overnight by two-fold serial dilution method; type: functional
Saccharomyces cerevisiae = assay: Inhibition of Saccharomyces cerevisiae CGMCC 2.145 chitin synthase using GlcNAc and UDP-GlcNAc as substrate at 300 ug/ml incubated for 60 mins by microplate reader analysis relative to control

Compound	MIC (Proteus vulgaris) [µg/mL]	MIC (Staphylococcus aureus [1]) [µg/mL]	MIC (Escherichia coli) [µg/mL]	MIC (Bacillus subtilis) [µg/mL]	pIC50 [2]	MIC (Candida albicans) [µg/mL]	MIC (Cryptococcus neoformans) [µg/mL]	MIC (Pseudomonas aeruginosa) [µg/mL]	MIC (Aspergillus flavus) [µg/mL]	MIC (Staphylococcus aureus [3]) [µg/mL]	inhibition (Saccharomyces cerevisiae) [%]
COc1ccc(NC[C@@H](O)CN2CCN(c3cccc4c3CCC(=O)N4)CC2)cc1.Cl	128	128	64	128	3.92	64	128	256	256	128	
Cc1ccc(NCC(O)CN2CCN(c3cccc4c3CCC(=O)N4)CC2)cc1.Cl (racemic)	64	64	128	128		128	> 512	128	128	64	17.6
Cl.O=C1CCc2c(cccc2N2CCN(CC(O)CNCc3ccc(Cl)cc3)CC2)N1 (racemic)	128	256	256	256		128	256	256	256	256	42.5
Cc1ccccc1NCC(O)CN1CCN(c2cccc3c2CCC(=O)N3)CC1.Cl (racemic)	128	128	256	128		128	256	128	256	128	28.4
Cl.O=C1CCc2c(cccc2N2CCN(CC(O)Cn3cnnc3)CC2)N1 (racemic)	64	256	64	128		64	128	128	256	128	30.8
Cl.O=C1CCc2c(cccc2N2CCN(CC(O)CN3CCCCCC3)CC2)N1 (racemic)	256	512	256	256		128	256	256	256	256	45.4
COc1ccccc1NCC(O)CN1CCN(c2cccc3c2CCC(=O)N3)CC1.Cl (racemic)	256	128	258	256		128	512	128	256	256	45.4
Cl.O=C1CCc2c(cccc2N2CCN(CC(O)CNCc3ccccc3)CC2)N1 (racemic)	256	128	256	256		128	> 512	256	> 512	256	18.1
Cc1cccc(C)c1NCC(O)CN1CCN(c2cccc3c2CCC(=O)N3)CC1.Cl (racemic)	128	256	128	128		128	256	128	256	128	40.7
Cl.O=C1CCc2c(cccc2N2CCN(CC(O)CN(CCO)CCO)CC2)N1 (racemic)	256	512	256	256		128	256	256	256	256	34.5
CCN(CC)CC(O)CN1CCN(c2cccc3c2CCC(=O)N3)CC1.Cl (racemic)	512	256	512	512		128	256	128	512	256	39.4
CC(C)(C)NCC(O)CN1CCN(c2cccc3c2CCC(=O)N3)CC1.Cl (racemic)	256	256	256	512		128	256	128	256	256	48.3
Cl.O=C1CCc2c(cccc2N2CCN(CC(O)CN3CCCCC3)CC2)N1 (racemic)	256	512	128	256		64	256	256	256	256	32.4
Cl.O=C1CCc2c(cccc2N2CCN(CC(O)CN3CCCC3)CC2)N1 (racemic)	256	256	128	256		128	256	512	256	256	49.9
Cl.O=C1CCc2c(cccc2N2CCN(CC(O)CN3CCOCC3)CC2)N1 (racemic)	128	128	128	128		64	256	128	256	256	44.7
Cl.O=C1CCc2c(cccc2N2CCN(CC(O)CN3CCNCC3)CC2)N1 (racemic)	256	256	256	128		128	256	128	256	256	38.6
Cl.O=C1CCc2c(cccc2N2CCN(CC(O)CNc3cccc4ccccc34)CC2)N1 (racemic)	128	128	128	256		128	256	128	512	128	47.5
OC(Cn1cncn1)(Cn1cncn1)c1ccc(F)cc1F [FLUCONAZOLE]						16 (≈ 52.2 µM)	4 (≈ 13.1 µM)		64 (≈ 209 µM)		
CCn1cc(C(=O)O)c(=O)c2cc(F)c(N3CCNCC3)cc21 [NORFLOXACIN]	2 (≈ 6.26 µM)	2 (≈ 6.26 µM)	1 (≈ 3.13 µM)	1 (≈ 3.13 µM)				0.5 (≈ 1.57 µM)		2 (≈ 6.26 µM)	
CN[C@@H]1[C@H](O[C@H]2[C@H](O[C@H]3[C@H](O)[C@@H](O)[C@H](N=C(N)N)[C@@H](O)[C@@H]3N=C(N)N)O[C@@H](C)[C@]2(O)C=O)O[C@@H](CO)[C@H](O)[C@H]1O.CN[C@@H]1[C@H](O[C@H]2[C@H](O[C@H]3[C@H](O)[C@@H](O)[C@H](N=C(N)N)[C@@H](O)[C@@H]3N=C(N)N)O[C@@H](C)[C@]2(O)C=O)O[C@@H](CO)[C@H](O)[C@H]1O.O=S(=O)(O)O.O=S(=O)(O)O.O=S(=O)(O)O [STREPTOMYCIN SULFATE]	16	32	4	8				16		8	
